Key:
delF508-CFTR [1] = molecular target: T1, delF508-CFTR (Homo sapiens, UniProt P13569, DEL508-508); experiment: Competition experiments by the iodide efflux technique between guanabenz and the chaperone machinery of the ER; format: cell-based
T1 construct: The CF15 cells are human epithelial cells of nasal origin which express the ΔF508-CFTR gene; endogenous in cells; host or cells: CF15 human airway epithelial cells (F508del/F508del)
Method: The measurements of chloride ion transport in the cells were performed with the aid of the radioactive iodide efflux technique (Becq et al., 1999; Dormer et al., 2001). The tracer (^125I) is incorporated into the intracellular medium. Next, the quantity of radiotracer which leaves the cell is counted after the addition of various pharmacological agents. The iodide is used as chloride ion transport tracer. ^125I further has the advantage of having a short life compared with that of other markers such as […] (respective ½ life: […] and 300 000 years).
The cells are cultured on 24-well plates in a suitable medium. Two rinses with efflux medium (NaCl: 136.6 mM, KCl: 5.4 mM, KH2PO4: 0.3 mM, NaH2PO4: 0.3 mM, NaHCO3: 4.2 mM, CaCl2: 1.3 mM, MgCl2: 0.5 mM, MgSO4: 0.4 Mm, HEPES: 10 mM, D-glucose: 5.6 mM) are performed in order to remove the dead cells which anarchically release radioactivity. Next, the cells are incubated with 500 μl of load (1 μCi/ml of ^125INa) for 30 min for the CHO-WT cells or 1 h for the CF15 and Calu-3 cells. The iodide forms an equilibrium on either side of the cell membrane. The robot (MultiPROBE, Packard) carries out the following steps: the load medium is rinsed with efflux medium in order to remove the extracellular radioactivity. The supernatant is collected every minute in hemolysis tubes and the medium is replaced with an equivalent volume (500 μl). No drug is added to the samples collected for the first 3 minutes, they make it possible to obtain a stable baseline, characterizing the passive outflow of the I ions. […] At the end of the experiment, the cells are lysed by adding 500 μl of NaOH (0.1N)/0.1% SDS (30 min), thus the radioactivity remaining inside the cell can be determined. The radioactivity present in the hemolysis tubes is counted in counts per minute (cpm) using a gamma counter (Cobra II, Packard). […] In order to quantify the outflow of iodide due to the administration of the test molecule, the following relative flow is calculated, which makes it possible to dispense with the basal flow: relative speed (min^−1)=Rpic−Rbasal. […]

delF508-CFTR [2] = molecular target: T1, delF508-CFTR; experiment: Iodide efflux (radiotracer) after 2 h treatment of CF15 cells, forskolin activation; format: cell-based

T1 sequence (P13569 with tags, fused parts or gaps DEL508-508): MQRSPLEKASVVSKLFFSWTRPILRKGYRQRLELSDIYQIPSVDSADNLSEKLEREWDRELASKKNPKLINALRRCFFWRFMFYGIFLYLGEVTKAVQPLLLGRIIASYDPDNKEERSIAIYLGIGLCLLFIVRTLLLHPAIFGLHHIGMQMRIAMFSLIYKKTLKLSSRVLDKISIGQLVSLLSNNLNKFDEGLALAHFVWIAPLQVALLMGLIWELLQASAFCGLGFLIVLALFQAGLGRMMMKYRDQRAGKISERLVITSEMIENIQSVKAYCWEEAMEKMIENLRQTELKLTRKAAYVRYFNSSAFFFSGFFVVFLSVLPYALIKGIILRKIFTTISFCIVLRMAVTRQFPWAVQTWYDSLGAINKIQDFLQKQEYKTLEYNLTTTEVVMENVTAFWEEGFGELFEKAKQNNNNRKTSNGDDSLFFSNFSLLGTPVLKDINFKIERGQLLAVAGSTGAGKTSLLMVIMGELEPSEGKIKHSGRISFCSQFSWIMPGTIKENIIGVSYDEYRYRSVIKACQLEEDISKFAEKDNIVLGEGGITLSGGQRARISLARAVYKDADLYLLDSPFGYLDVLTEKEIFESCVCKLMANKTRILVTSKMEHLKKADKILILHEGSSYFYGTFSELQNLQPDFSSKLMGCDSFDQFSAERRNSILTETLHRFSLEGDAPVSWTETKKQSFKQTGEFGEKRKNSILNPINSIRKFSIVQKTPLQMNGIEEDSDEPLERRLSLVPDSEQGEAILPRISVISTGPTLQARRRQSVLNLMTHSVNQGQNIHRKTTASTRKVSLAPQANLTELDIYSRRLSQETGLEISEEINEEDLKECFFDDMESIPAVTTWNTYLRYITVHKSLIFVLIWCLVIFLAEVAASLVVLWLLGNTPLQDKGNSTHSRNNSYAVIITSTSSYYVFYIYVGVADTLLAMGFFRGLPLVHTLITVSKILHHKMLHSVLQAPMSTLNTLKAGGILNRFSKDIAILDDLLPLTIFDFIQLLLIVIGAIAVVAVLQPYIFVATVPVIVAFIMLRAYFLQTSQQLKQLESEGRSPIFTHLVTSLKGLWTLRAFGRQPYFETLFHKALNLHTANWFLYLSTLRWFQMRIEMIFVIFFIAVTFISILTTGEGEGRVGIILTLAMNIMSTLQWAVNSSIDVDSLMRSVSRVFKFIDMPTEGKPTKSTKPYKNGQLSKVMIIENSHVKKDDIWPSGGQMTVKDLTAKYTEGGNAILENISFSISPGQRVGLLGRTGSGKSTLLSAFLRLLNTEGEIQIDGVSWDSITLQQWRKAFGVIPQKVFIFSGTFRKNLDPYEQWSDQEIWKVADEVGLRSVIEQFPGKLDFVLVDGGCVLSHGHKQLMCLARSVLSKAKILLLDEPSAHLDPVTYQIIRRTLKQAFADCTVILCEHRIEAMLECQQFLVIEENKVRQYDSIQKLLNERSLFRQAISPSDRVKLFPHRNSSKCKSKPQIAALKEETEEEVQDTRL

- effect of guanabenz in the presence of Brefeldine-A (BFA) (delF508-CFTR [1]; BFA, inhibitor of vesicular ERGIC traffic): inhibition of the effect of guanabenz
- effect of guanabenz in the presence of MG132 (delF508-CFTR [1]; MG132, proteasome inhibitor): No modulation of the effect of guanabenz
- EC50 (delF508-CFTR [2]; CF15 cells, 2 h of treatment, iodide efflux, read-out: EC50 of readdressing of the protein F508del-CFTR): 40 µM
SMILES: N=C(N)N/N=C/c1c(Cl)cccc1Cl [guanabenz]
- effect of guanabenz in the presence of swainsonine (delF508-CFTR [1]; swainsonine, mannosidase inhibitor): low potentiation of the effect of guanabenz
- readdressing of the mutated protein F508del-CFTR to the membrane (delF508-CFTR [2]; CF15 cells (F508del/F508del) treated with guanabenz): allows readdressing of the mutated protein F508del-CFTR to the membrane
